Reference: PMC3918733, “The Enzymatic Decolorization of Textile Dyes by the Immobilized Polyphenol Oxidase from Quince Leaves” (The Scientific World Journal, 2014)

System: T1, polyphenol oxidase (PPO) from quince leaves
T1 construct: isoenzyme not identified; free enzyme
Assay: absorbance at […] nm, Lineweaver-Burk
Format: biochemical, Cydonia oblonga
Conditions: free enzyme, partially purified; optimum pH and temperature (pH 7.5, 30 °C), phosphate buffer

For `Oc1ccccc1O` [catechol], the Km was 5.86 mM.
